Experimental data reported in ChEMBL document CHEMBL2169792, “Synthesis of new 4-thiazolidinone-, pyrazoline-, and isatin-based conjugates with promising antitumor activity” (J Med Chem, 2012).

Tests used:
[1] = Toxicity in mouse; format: organism-based; conditions: in vivo
MDA-MB-468 = test: Cytotoxicity against human MDA-MB-468 cells after 48 hrs by SRB assay; format: functional; conditions: MDA-MB-468, 48 h
BT-549 = test: Cytotoxicity against human BT549 cells after 48 hrs by SRB assay; format: functional; conditions: BT-549, 48 h
Hs-578T = test: Cytotoxicity against human Hs578T cells after 48 hrs by SRB assay; format: functional
DU-145 = test: Cytotoxicity against human DU145 cells after 48 hrs by SRB assay; format: functional; conditions: DU-145, 48 h
SK-OV-3 = test: Cytotoxicity against human SKOV3 cells after 48 hrs by SRB assay; format: functional; conditions: SK-OV-3, 48 h
NCI/ADR-RES = test: Cytotoxicity against human NCI/ADR-RES cells after 48 hrs by SRB assay; format: functional
OVCAR-8 = test: Cytotoxicity against human OVCAR8 cells after 48 hrs by SRB assay; format: functional; conditions: OVCAR-8, 48 h
OVCAR-4 = test: Cytotoxicity against human OVCAR4 cells after 48 hrs by SRB assay; format: functional; conditions: OVCAR-4, 48 h
SK-MEL-5 [2] = test: Cytotoxicity against human SK-MEL-5 cells after 48 hrs by SRB assay; format: functional; conditions: SK-MEL-5, 48 h, read-out: LC50 (the source's name)
MDA-MB-435 = test: Cytotoxicity against human MDA-MB-435 cells after 48 hrs by SRB assay; format: functional; conditions: MDA-MB-435, 48 h
SK-MEL-2 = test: Cytotoxicity against human SK-MEL-2 cells after 48 hrs by SRB assay; format: functional; conditions: SK-MEL-2, 48 h, read-out: LC50 (the source's name)
Malme-3M = test: Cytotoxicity against human MALME-3M cells after 48 hrs by SRB assay; format: functional
LOX IMVI = test: Cytotoxicity against human LOXIMVI cells after 48 hrs by SRB assay; format: functional
U-251 = test: Cytotoxicity against human U251 cells after 48 hrs by SRB assay; format: functional; conditions: U-251, 48 h
SW-620 = test: Cytotoxicity against human SW620 cells after 48 hrs by SRB assay; format: functional; conditions: SW-620, 48 h
KM12 = test: Cytotoxicity against human KM12 cells after 48 hrs by SRB assay; format: functional; conditions: KM12, 48 h
HT-29 = test: Cytotoxicity against human HT-29 cells after 48 hrs by SRB assay; format: functional; conditions: HT-29, 48 h
HCT-116 = test: Cytotoxicity against human HCT116 cells after 48 hrs by SRB assay; format: functional; conditions: HCT-116, 48 h
HCC 2998 = test: Cytotoxicity against human HCC2998 cells after 48 hrs by SRB assay; format: functional; conditions: HCC 2998, 48 h
NCI-H460 = test: Cytotoxicity against human NCI-H460 cells after 48 hrs by SRB assay; format: functional; conditions: NCI-H460, 48 h
NCI-H23 = test: Cytotoxicity against human NCI-H23 cells after 48 hrs by SRB assay; format: functional; conditions: NCI-H23, 48 h
NCI-H322M = test: Cytotoxicity against human NCI-H322M cells after 48 hrs by SRB assay; format: functional
HOP-92 = test: Cytotoxicity against human HOP92 cells after 48 hrs by SRB assay; format: functional; conditions: HOP-92, 48 h
NCI-H226 = test: Cytotoxicity against human NCI-H226 cells after 48 hrs by SRB assay; format: functional; conditions: NCI-H226, 48 h
SR = test: Cytotoxicity against human SR cells after 48 hrs by SRB assay; format: functional
A549 = test: Cytotoxicity against human A549 cells after 48 hrs by SRB assay; format: functional; conditions: A549, 48 h
CCRF-CEM = test: Cytotoxicity against human CCRF-CEM cells after 48 hrs by SRB assay; format: functional
HL-60(TB) = test: Cytotoxicity against human HL-60(TB) cells after 48 hrs by SRB assay; format: functional; conditions: HL-60, 48 h
[3] = Cytotoxicity against human non-small cell lung cancer cells after 48 hrs by SRB assay; format: functional; conditions: Cancer cell lines
[4] = Cytotoxicity against human prostate cancer cells after 48 hrs by SRB assay; format: functional; conditions: Cancer cell lines
[5] = Cytotoxicity against human breast cancer cells after 48 hrs by SRB assay; format: functional; conditions: Cancer cell lines
[6] = Cytotoxicity against human renal cancer cells after 48 hrs by SRB assay; format: functional; conditions: Cancer cell lines
[7] = Cytotoxicity against human CNS cancer cells after 48 hrs by SRB assay; format: functional; conditions: Cancer cell lines
[8] = Cytotoxicity against human colon cancer cells after 48 hrs by SRB assay; format: functional; conditions: Cancer cell lines
SK-MEL-5 [9] = test: Cytotoxicity against human SK-MEL-5 cells assessed as cell growth at 10 uM after 48 hrs by SRB assay; format: functional; conditions: SK-MEL-5, 48 h, read-out: Activity
[10] = read-out: LC50 (the source's name)

## COc1ccc(C2CC(c3ccc4ccccc4c3)=NN2C2=NC(=O)/C(=C3\C(=O)Nc4ccc(Br)cc43)S2)cc1 (centres undefined)
[1]
  MTD: > 400 mg/kg
MDA-MB-468
  GI50: 22.3 nM
  TGI: 62.2 nM
MDA-MB-468; [10]
  CC50: 190 nM
BT-549
  GI50: 553 nM
  TGI: 7740 nM
BT-549; [10]
  CC50: 35100 nM
Hs-578T
  GI50: 64.4 nM
  TGI: > 1030 nM
Hs-578T; [10]
  CC50: > 100000 nM
DU-145
  GI50: 39.3 nM
  TGI: 752 nM
DU-145; [10]
  CC50: 25500 nM
SK-OV-3
  GI50: 33 nM
  TGI: > 114 nM
SK-OV-3; [10]
  CC50: > 2840 nM
NCI/ADR-RES
  GI50: 675 nM
  TGI: > 100000 nM
NCI/ADR-RES; [10]
  CC50: > 100000 nM
OVCAR-8
  GI50: 32 nM
  TGI: 176 nM
OVCAR-8; [10]
  CC50: 24100 nM
OVCAR-4
  GI50: 32.6 nM
  TGI: > 111 nM
OVCAR-4; [10]
  CC50: > 100000 nM
SK-MEL-5 [2]
  CC50: 341 nM
MDA-MB-435
  GI50: 31.8 nM
  TGI: 106 nM
MDA-MB-435; [10]
  CC50: 2440 nM
SK-MEL-2
  CC50: 882 nM
Malme-3M
  GI50: 27.7 nM
  TGI: 72.9 nM
Malme-3M; [10]
  CC50: 640 nM
LOX IMVI
  GI50: 24.3 nM
  TGI: 58.9 nM
LOX IMVI; [10]
  CC50: 249 nM
U-251
  GI50: 24.6 nM
  TGI: 57.8 nM
U-251; [10]
  CC50: 289 nM
SW-620
  GI50: 22 nM
  TGI: 47.7 nM
SW-620; [10]
  CC50: 127 nM
KM12
  GI50: 23.1 nM
  TGI: 53.5 nM
KM12; [10]
  CC50: 231 nM
HT-29
  GI50: 199 nM
  TGI: 537 nM
HCT-116
  GI50: 18 nM
  TGI: 33.5 nM
HCT-116; [10]
  CC50: > 62.4 nM
HCC 2998
  GI50: 25.2 nM
  TGI: 65.8 nM
HCC 2998; [10]
  CC50: 272 nM
NCI-H460
  GI50: 33.1 nM
  TGI: 112 nM
NCI-H460; [10]
  CC50: 5450 nM
NCI-H23
  GI50: 24.6 nM
  TGI: 56.7 nM
NCI-H23; [10]
  CC50: 291 nM
NCI-H322M
  GI50: 36 nM
  TGI: 560 nM
NCI-H322M; [10]
  CC50: > 64100 nM
HOP-92
  GI50: < 10 nM
  TGI: 24.2 nM
HOP-92; [10]
  CC50: 1470 nM
NCI-H226
  GI50: 21.5 nM
  TGI: 173 nM
NCI-H226; [10]
  CC50: 586 nM
SR
  GI50: 28.9 nM
  TGI: 130 nM
SR; [10]
  CC50: > 100000 nM
A549
  GI50: 24.7 nM
  TGI: 69.5 nM
A549; [10]
  CC50: 25700 nM
CCRF-CEM
  GI50: 32.9 nM
  TGI: 483 nM
CCRF-CEM; [10]
  CC50: > 100000 nM
HL-60(TB)
  GI50: 257 nM
  TGI: 3200 nM
HL-60(TB); [10]
  CC50: > 49300 nM
[3]
  GI50: 54 nM
  TGI: 220 nM
[3]; [10]
  CC50: 41500 nM
[4]
  GI50: 59 nM
  LC50: 13800 nM
  TGI: 510 nM
[5]
  GI50: 61 nM
  LC50 (concentration causing 50% net cell kill): 2650 nM
  TGI: 990 nM
[6]
  GI50: 64 nM
  LC50: 5190 nM
  TGI: 330 nM
[7]
  GI50: 46 nM
  LC50 (concentration giving 50% net cell kill): 3420 nM
  TGI: 210 nM
[8]
  GI50: 50 nM
  LC50 (concentration lethal to 50% of cells): 1150 nM
  TGI: 140 nM
SK-MEL-5 [9]
  growth at 10 µM: -59.8%
